Data: PubChem BioAssay AID1918948 (Molecular Pharmacology Branch, DTP, NCI, 2023)
pIC50: −log10 of the molar value.

Test system: K-562 leukemia growth, % test/control
Test: Anticancer human tumor K-562 cell line growth inhibition;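 on viability, T/C: 100% = DMSO vehicle wells and lower values mean fewer viable cells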
Settings: spheroids with HUVEC and MSC; for pIC50: curve of first compound; for viability, T/C: stronger effect = lower value
Outline: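 Complex spheroids of tumor cells with HUVEC and human MSCs, exposed to iadademstat combined with other agents. Each agent tested in half-log steps from near clinical Cmax (else 10 microM top), DMSO ≤0.25%.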

[1] = second compound 0.1 µM, first compound 0.0316 µM
[2] = second compound 0.1 µM, first compound 0.1 µM
[3] = second compound 0.1 µM, first compound 0.316 µM
[4] = second compound 0.1 µM, first compound 1 µM
[5] = second compound 0.316 µM, first compound 0.0316 µM
[6] = second compound 0.316 µM, first compound 0.1 µM
[7] = second compound 0.316 µM, first compound 0.316 µM
[8] = second compound 0.316 µM, first compound 1 µM
[9] = second compound 1 µM, first compound 0.0316 µM
[10] = second compound 1 µM, first compound 0.1 µM
[11] = second compound 1 µM, first compound 0.316 µM
[12] = second compound 1 µM, first compound 1 µM
[13] = second compound 3.16 µM, first compound 0.0316 µM
[14] = second compound 3.16 µM, first compound 0.1 µM
[15] = second compound 3.16 µM, first compound 0.316 µM
[16] = second compound 3.16 µM, first compound 1 µM
[17] = second compound 10 µM, first compound 0.0316 µM
[18] = second compound 10 µM, first compound 0.1 µM
[19] = second compound 10 µM, first compound 0.316 µM
[20] = second compound 10 µM, first compound 1 µM

## CC(C)c1c(-c2ccccc2)nc2c(C#N)c[nH]n2c1=O + NC1CC1c1ccc(-c2cccc(O)c2)cc1
Second compound 0.1 µM
  pIC50: < 5.00
Second compound 0.316 µM
  pIC50: < 5.00
Second compound 1 µM
  pIC50: < 5.00
Second compound 3.16 µM
  pIC50: < 5.00
Second compound 10 µM
  pIC50: < 5.00
[1]
  viability, T/C: 105%
[2]
  viability, T/C: 108%
[3]
  viability, T/C: 102%
[4]
  viability, T/C: 107%
Second compound 0.1 µM, first compound 3.16 µM
  viability, T/C: 111%
Second compound 0.1 µM, first compound 10 µM
  viability, T/C: 106%
[5]
  viability, T/C: 102%
[6]
  viability, T/C: 103%
[7]
  viability, T/C: 102%
[8]
  viability, T/C: 105%
Second compound 0.316 µM, first compound 3.16 µM
  viability, T/C: 106%
Second compound 0.316 µM, first compound 10 µM
  viability, T/C: 98.9%
[9]
  viability, T/C: 97.8%
[10]
  viability, T/C: 103%
[11]
  viability, T/C: 95.5%
[12]
  viability, T/C: 101%
Second compound 1 µM, first compound 3.16 µM
  viability, T/C: 99.4%
Second compound 1 µM, first compound 10 µM
  viability, T/C: 96.4%
[13]
  viability, T/C: 102%
[14]
  viability, T/C: 97.7%
[15]
  viability, T/C: 100%
[16]
  viability, T/C: 97.2%
Second compound 3.16 µM, first compound 3.16 µM
  viability, T/C: 99.2%
Second compound 3.16 µM, first compound 10 µM
  viability, T/C: 95.9%
[17]
  viability, T/C: 99.4%
[18]
  viability, T/C: 96.1%
[19]
  viability, T/C: 96.5%
[20]
  viability, T/C: 98.3%
Second compound 10 µM, first compound 3.16 µM
  viability, T/C: 98.3%
Second compound 10 µM, first compound 10 µM
  viability, T/C: 92%

## COc1cc(C2c3cc4c(cc3C(OC3OC5COC(C)OC5C(O)C3O)C3COC(=O)C23)OCO4)cc(OC)c1O (stereo not given) + NC1CCC(NC2CC2c2ccccc2)CC1
Second compound 0.1 µM
  pIC50: 7.62
Second compound 0.316 µM
  pIC50: 7.59
Second compound 1 µM
  pIC50: 7.57
Second compound 3.16 µM
  pIC50: 7.56
Second compound 10 µM
  pIC50: 7.57
Second compound 0.1 µM, first compound 0.00949 µM
  viability, T/C: 86.3%
Second compound 0.1 µM, first compound 0.03 µM
  viability, T/C: 34.6%
Second compound 0.1 µM, first compound 0.0949 µM
  viability, T/C: 26.9%
Second compound 0.1 µM, first compound 0.3 µM
  viability, T/C: 35.2%
Second compound 0.1 µM, first compound 0.949 µM
  viability, T/C: 13.8%
Second compound 0.1 µM, first compound 3 µM
  viability, T/C: 3.12%
Second compound 0.316 µM, first compound 0.00949 µM
  viability, T/C: 87.3%
Second compound 0.316 µM, first compound 0.03 µM
  viability, T/C: 36%
Second compound 0.316 µM, first compound 0.0949 µM
  viability, T/C: 28.2%
Second compound 0.316 µM, first compound 0.3 µM
  viability, T/C: 36.1%
Second compound 0.316 µM, first compound 0.949 µM
  viability, T/C: 14%
Second compound 0.316 µM, first compound 3 µM
  viability, T/C: 3.11%
Second compound 1 µM, first compound 0.00949 µM
  viability, T/C: 86.8%
Second compound 1 µM, first compound 0.03 µM
  viability, T/C: 37.7%
Second compound 1 µM, first compound 0.0949 µM
  viability, T/C: 28.6%
Second compound 1 µM, first compound 0.3 µM
  viability, T/C: 35.5%
Second compound 1 µM, first compound 0.949 µM
  viability, T/C: 12.9%
Second compound 1 µM, first compound 3 µM
  viability, T/C: 3.58%
Second compound 3.16 µM, first compound 0.00949 µM
  viability, T/C: 87.5%
Second compound 3.16 µM, first compound 0.03 µM
  viability, T/C: 37%
Second compound 3.16 µM, first compound 0.0949 µM
  viability, T/C: 30.1%
Second compound 3.16 µM, first compound 0.3 µM
  viability, T/C: 33.8%
Second compound 3.16 µM, first compound 0.949 µM
  viability, T/C: 12.7%
Second compound 3.16 µM, first compound 3 µM
  viability, T/C: 3.14%
Second compound 10 µM, first compound 0.00949 µM
  viability, T/C: 83.2%
Second compound 10 µM, first compound 0.03 µM
  viability, T/C: 38.2%
Second compound 10 µM, first compound 0.0949 µM
  viability, T/C: 30.4%
Second compound 10 µM, first compound 0.3 µM
  viability, T/C: 26.7%
Second compound 10 µM, first compound 0.949 µM
  viability, T/C: 9.22%
Second compound 10 µM, first compound 3 µM
  viability, T/C: 2.85%

## Nc1ncn(C2CC(O)C(CO)O2)c(=O)n1 (stereo not given) + NC1CCC(NC2CC2c2ccccc2)CC1
Second compound 0.1 µM
  pIC50: 6.16
Second compound 0.316 µM
  pIC50: 6.11
Second compound 1 µM
  pIC50: 6.19
Second compound 3.16 µM
  pIC50: 6.40
Second compound 10 µM
  pIC50: 7.16
Second compound 0.1 µM, first compound 0.00316 µM
  viability, T/C: 102%
Second compound 0.1 µM, first compound 0.01 µM
  viability, T/C: 98.2%
[1]
  viability, T/C: 89.2%
[2]
  viability, T/C: 71.4%
[3]
  viability, T/C: 54.7%
[4]
  viability, T/C: 47.8%
Second compound 0.316 µM, first compound 0.00316 µM
  viability, T/C: 104%
Second compound 0.316 µM, first compound 0.01 µM
  viability, T/C: 100%
[5]
  viability, T/C: 90.3%
[6]
  viability, T/C: 71%
[7]
  viability, T/C: 56.4%
[8]
  viability, T/C: 48%
Second compound 1 µM, first compound 0.00316 µM
  viability, T/C: 103%
Second compound 1 µM, first compound 0.01 µM
  viability, T/C: 100%
[9]
  viability, T/C: 89.4%
[10]
  viability, T/C: 72.4%
[11]
  viability, T/C: 56.3%
[12]
  viability, T/C: 46.1%
Second compound 3.16 µM, first compound 0.00316 µM
  viability, T/C: 102%
Second compound 3.16 µM, first compound 0.01 µM
  viability, T/C: 99.5%
[13]
  viability, T/C: 88.1%
[14]
  viability, T/C: 68.4%
[15]
  viability, T/C: 50.8%
[16]
  viability, T/C: 45%
Second compound 10 µM, first compound 0.00316 µM
  viability, T/C: 89.3%
Second compound 10 µM, first compound 0.01 µM
  viability, T/C: 84.5%
[17]
  viability, T/C: 64.2%
[18]
  viability, T/C: 45%
[19]
  viability, T/C: 25.6%
[20]
  viability, T/C: 24.9%
